Test results reported in patent US11261190B2, “Dihydropyrimidine compounds and uses thereof in medicine” (SUNSHINE LAKE PHARMA CO., LTD., priority 2017, dated 2022).

Columns and labels:
[1] = tested on: HBV; assay: Anti HBV activity in vitro, viral DNA from HepG2.2.15 cells quantified by qPCR; assay type: cell-based; details: Hepatitis B virus, qPCR of viral DNA in supernatant, read-out: EC50 against HBV replication
Description: Test 1: Test Method of EC50 of Anti HBV
HBV Cell Line and Culture Conditions
HepG2.2.15 (SELLS, PNAS, 1987 and SELLS, JV, 1988) chromosomes have an integrated complete HBV genome, and stably express viral RNA and viral protein. HepG2.2.15 cells can secrete mature HBV particles, HBsAg and HBeAg to medium. HepG2.2.15 cells were cultured in DMEM containing 10% fetal bovine serum, 100 U/mL penicillin, 100 U/mL streptomycin, 1% non essential amino acid, 1 mM sodium pyruvate and 300 µg/mL G418.
Viral particles DNA secreted from HepG2.2.15 cells can be quantified by qPCR, and the effect of the compound on viral replication can be detected.
Test of Anti HBV Activity In Vitro
8000 HepG 2.2.15 cells per well were seeded into a 96-well plate, the plate was cultured at 37° C. and 5% CO2 for 3 days till the cells grew to full wells. Old liquid medium can be removed and replaced with new medium (200 μL) on day 0.
Formulating the compound and treating the cells in the experiment of anti virus: the compound was dissolved in DMSO to a concentration of 30 mM, and then the compound solution was diluted with DMSO to a concentration of […], and then eight dilutions at 4 fold were performed, the highest concentration is 800 μM. The serial diluted compound was added to the above plate at 1 μL per well, the highest final concentration in the experiment is 4 μM (200 fold dilution). TDF (tenofovir dipiroxil fumarate, Selleck, Cat S1400) has a highest concentration of 4 μM as a positive control. 1 μL of DMSO was added in to the positive control well at a final concentration of 0.5%, TDF was added in to the positive control well at a final concentration of 1 μM.
Detection of Viral Genomic DNA by qPCR
Primer: HBV-For-202, […]; HBV-Rev-315, […]. Copies of virus can be calculated using a standard curve plotted by using plasmid containing HBV genome and using SYBR Premix Ex Taq II Takara DRR081S kit and 1 μL cell culture supernatant as a template. EC50 values of the compound on viral replication were calculated by a four parametric nonlinear regression model using Graphpad Prism 5 software to manage concentration—viral copy number.

[2] = Cytotoxicity in HepG2.2.15 cells (CellTiter Glo); assay type: cell-based; details: human, highest concentration 150 μM
Description: Test 2: Cytotoxicity and Selectivity Index
Methods of Testing Cytotoxicity and Selectivity Index
The serial diluted compound was added to a 384 wells plate at 50 μL HepG2.2.15 cell per well (3000 cells per well), the highest final concentration in the experiment is 150 μM (200 fold dilution). The plate was cultured at 37° C. in an incubator with C02 for 4 days, and cytotoxicity of the compound was detected using CellTiter Glo agent.
The cytotoxicity of the compound was calculated using the following formulate, cytotoxicity (%)=100−(detection value/mean of DMSO control wells values×100). CC50 values were calculated by a four parametric nonlinear regression model using Graphpad Prism 5 software to manage concentration−cytotoxicity (%). […]

| Compound | EC50 [1] [µM] | CC50 at 4 days [2] [µM] |
| --- | --- | --- |
| COCCN1C[C@@H](N2C[C@@H]3CN(CC4=C(C(=O)OC)[C@H](c5ccc(F)cc5Cl)N=C(c5nccs5)N4)CCN3C2=O)C[C@@H]1C(=O)O [Example 7, (2R,4S)-4-((S)-7-(((R)-6-(2-chloro-4-fluorophenyl)-5-(methoxycarbonyl)-2-(thiazol-2-yl)-3,6-dihydropyrimidin-4-yl)methyl)-3-oxohexahydroimidazo[1,5-a]pyrazin-2(3H)-yl)-1-(2-methoxyethyl)pyrrolidine-2-carboxylic Acid] | 0.056 |  |
| COC(=O)C1=C(CN2CCN3C(=O)N([C@H](Cc4ccccc4)C(=O)O)CC3C2)NC(c2nccs2)=N[C@H]1c1ccc(F)cc1Cl (stereo partly drawn) [Example 11, (2R)-2-(7-(((R)-6-(2-chloro-4-fluorophenyl)-5-(methoxycarbonyl)-2-(thiazol-2-yl)-3,6-dihydropyrimidin-4-yl)methyl)-3-oxohexahydroimidazo[1,5-a]pyrazin-2(3H)-yl)-3-phenylpropionic Acid] | 0.032 |  |
| COC(=O)C1=C(CN2CCN3C(=O)N(C(CC(=O)O)c4ccccc4)C[C@@H]3C2)NC(c2nccs2)=N[C@H]1c1ccc(F)cc1Cl (stereo partly drawn) [Example 12, 3-((S)-7-(((R)-6-(2-chloro-4-fluorophenyl)-5-(methoxycarbonyl)-2-(thiazol-2-yl)-3,6-dihydropyrimidin-4-yl)methyl)-3-oxohexahydroimidazo[1,5-a]pyrazin-2(3H)-yl)-3-phenylpropionic Acid] | 0.037 |  |
| COC(=O)C1=C(CN2CCN3C(=O)N(c4ccc(C(C)(C)C(=O)O)cc4)C[C@@H]3C2)NC(c2nccs2)=N[C@H]1c1ccc(F)cc1Cl [Example 15, 2-(4-((S)-7-(((R)-6-(2-chloro-4-fluorophenyl)-5-(methoxycarbonyl)-2-(thiazol-2-yl)-3,6-dihydropyrimidin-4-yl)methyl)-3-oxohexahydroimidazo[1,5-a]pyrazin-2(3H)-yl)phenyl)-2-methylpropionic Acid] | 0.005 | > 150 |
| COC(=O)C1=C(CN2CCN3C(=O)N(c4ccc(C(CC(=O)O)NC(=O)OC(C)(C)C)cc4)C[C@@H]3C2)NC(c2nccs2)=N[C@H]1c1ccc(F)cc1Cl (stereo partly drawn) [Example 16, 3-((tert-butoxycarbonyl)amino)-3-(4-((S)-7-(((R)-6-(2-chloro-4-fluorophenyl)-5-(methoxycarbonyl)-2-(thiazol-2-yl)-3,6-dihydropyrimidin-4-yl)methyl)-3-oxohexahydroimidazo[1,5-a]pyrazin-2 (3H)-yl)phenyl)propanoic Acid] | 0.014 | > 150 |
| COC(=O)C1=C(CN2CCN3C(=O)N(c4ccc(CC(C)C(=O)O)cc4)C[C@@H]3C2)NC(c2nccs2)=N[C@H]1c1ccc(F)cc1Cl (stereo partly drawn) [Example 18, 3-(4-((S)-7-(((R)-6-(2-chloro-4-fluorophenyl)-5-(methoxycarbonyl)-2-(thiazol-2-yl)-3,6-dihydropyrimidin-4-yl)methyl)-3-oxohexahydroimidazo[1,5-a]pyrazin-2(3H)-yl)phenyl)-2-methylpropionic Acid] | 0.004 | > 150 |
| COC(=O)C1=C(CN2CCN3C(=O)N(c4nc(CCC(=O)O)cs4)C[C@@H]3C2)NC(c2nccs2)=N[C@H]1c1ccc(F)cc1Cl [Example 20, 3-(2-((S)-7-(((R)-6-(2-chloro-4-fluorophenyl)-5-(methoxycarbonyl)-2-(thiazol-2-yl)-3,6-dihydropyrimidin-4-yl)methyl)-3-oxohexahydroimidazo[1,5-a]pyrazin-2(3H)-yl)thiazol-4-yl)propionic Acid] | 0.005 | > 150 |
| COC(=O)C1=C(CN2CCN3C(=O)N(Cc4ccc(CC(=O)O)cc4)C[C@@H]3C2)NC(c2nccs2)=N[C@H]1c1ccc(F)cc1Cl [Example 21, 2-(4-(((S)-7-(((R)-6-(2-chloro-4-fluorophenyl)-5-(methoxycarbonyl)-2-(thiazol-2-yl)-3,6-dihydropyrimidin-4-yl)methyl)-3-oxohexahydroimidazo[1,5-a]pyrazin-2(3H)-yl)methyl)phenyl)acetic Acid] | 0.022 | 110 |
| CCOC(=O)C1=C(CN2CCN3C(=O)N(c4ccc(CCC(=O)O)cc4)C[C@@H]3C2)NC(c2nccs2)=N[C@H]1c1ccc(F)cc1Br [Example 22, 3-(4-((S)-7-(((R)-6-(2-bromo-4-fluorophenyl)-5-(ethoxycarbonyl)-2-(thiazol-2-yl)-3,6-dihydropyrimidin-4-yl)methyl)-3-oxohexahydroimidazo[1,5-a]pyrazin-2(3H)-yl)phenyl)prop ionic Acid] | 0.005 | > 150 |
| COC(=O)C1=C(CN2CCN3C(=O)N(c4ccc(CCC(=O)O)cn4)C[C@@H]3C2)NC(c2nccs2)=N[C@H]1c1ccc(F)cc1Cl [Example 35, 3-(6-((S)-7-(((R)-6-(2-chloro-4-fluorophenyl)-5-(methoxycarbonyl)-2-(thiazol-2-yl)-3,6-dihydropyrimidin-4-yl)methyl)-3-oxohexahydroimidazo[1,5-a]pyrazin-2(3H)-yl)pyridin-3-yl)propionic Acid] | 0.008 |  |
| COC(=O)C1=C(CN2CCN3C(=O)N(c4cncc(CCC(=O)O)c4)C[C@@H]3C2)NC(c2nccs2)=N[C@H]1c1ccc(F)cc1Cl [Example 36, 3-(5-((S)-7-(((R)-6-(2-chloro-4-fluorophenyl)-5-(methoxycarbonyl)-2-(thiazol-2-yl)-3,6-dihydropyrimidin-4-yl)methyl)-3-oxohexahydroimidazo[1,5-a]pyrazin-2(3H)-yl)pyridin-3-yl)propionic Acid] |  | > 150 |
| COC[C@@H]1[C@H]2CN(c3ccc(CCC(=O)OC)cc3)C(=O)N2CCN1CC1=C(C(=O)OC)[C@H](c2ccc(F)cc2Cl)N=C(c2nccs2)N1 [Example 50B] | 0.008 |  |
| COC[C@H]1[C@@H]2CN(c3ccc(CCC(=O)O)cc3)C(=O)N2CCN1CC1=C(C(=O)OC)[C@H](c2ccc(F)cc2Cl)N=C(c2nccs2)N1 [Example 51A] |  | > 150 |
| CCOC(=O)C1=C(CN2CCN3C(=O)N(c4ccc(/C=C(\C)C(=O)O)cc4)C[C@@H]3C2)NC(c2nccs2)=N[C@H]1c1ccc(F)cc1Br [Example 55, (E)-3-(4-((S)-7-(((R)-6-(2-bromo-4-fluorophenyl)-5-(ethoxycarbonyl)-2-(thiazol-2-yl)-3,6-dihydropyrimidin-4-yl)methyl)-3-oxohexahydroimidazo[1,5-a]pyrazin-2(3H)-yl)phenyl)-2-methylacrylic Acid] | 0.009 |  |
| CCOC(=O)C1=C(CN2CCN3C(=O)N(c4ccc(/C(C)=C/C(=O)O)cc4)C[C@@H]3C2)NC(c2nccs2)=N[C@H]1c1ccc(F)cc1Br [Example 56, (E)-3-(4-((S)-7-(((R)-6-(2-bromo-4-fluorophenyl)-5-(ethoxycarbonyl)-2-(thiazol-2-yl)-3,6-dihydropyrimidin-4-yl)methyl)-3-oxohexahydroimidazo[1,5-a]pyrazin-2(3H)-yl)phenyl)-2-butenoic Acid] | 0.012 |  |
| CCOC(=O)C1=C(CN2CCN3C(=O)N(c4ccc(CCC(=O)O)cc4)C[C@@H]3[C@H]2COC)NC(c2nccs2)=N[C@H]1c1ccc(F)cc1Br [Example 57, 3-(4-((8S,8aR)-7-(((R)-6-(2-bromo-4-fluorophenyl)-5-(ethoxycarbonyl)-2-(thiazol-2-yl)-3,6-dihydropyrimidin-4-yl)methyl)-8-(methoxymethyl)-3-oxohexahydroimidazo[1,5-a]pyrazin-2(3H)-yl)phenyl)propionic Acid] | 0.012 |  |
| COC(=O)CCc1ccc(N2C[C@@H]3[C@@H](CO)N(CC4=C(C(=O)OC)[C@H](c5ccc(F)cc5Cl)N=C(c5nccs5)N4)CCN3C2=O)cc1 [Example 58B] | 0.014 |  |
| COC(=O)C1=C(CN2CCN3C(=O)N(c4ccc(CCC(=O)O)cc4)C[C@H]3[C@@H]2CO)NC(c2nccs2)=N[C@H]1c1ccc(F)cc1Cl [Example 59A] |  | > 150 |
| COC[C@@H]1[C@H]2CN(c3ccc(C(C)(C)C(=O)OC)cc3)C(=O)N2CCN1CC1=C(C(=O)OC)[C@H](c2ccc(F)cc2Cl)N=C(c2nccs2)N1 [Example 60B] | 0.004 |  |
| COC[C@@H]1[C@H]2CN(c3ccc(C(C)(C)C(=O)O)cc3)C(=O)N2CCN1CC1=C(C(=O)OC)[C@H](c2ccc(F)cc2Cl)N=C(c2nccs2)N1 [Example 61B] | 0.005 |  |
